{"source": "PubChem BioAssay AID1259407", "about": "(Chemical Carcinogenesis Research Information System (CCRIS), 2018)", "tested_on": "CCRIS mutagenicity, Ames/micronucleus/aberration tests", "assay": "CCRIS mutagenicity studies", "note": "Activity calls are given as the source filed them. How the calls were made is not given here.", "data": [{"smiles": "C1CCC2CCCCC2C1", "note": "(centres undefined)", "values": [{"measurement": "mutagenic call", "setting": "End Point: IN VIVO MICRONUCLEUS, Test System: PERIPHERAL BLOOD LYMPHOCYTES, Species: MOUSE, Strain/Sex: B6C3F1/FEMALE, Route: INHALATION", "result": "inactive; negative"}, {"measurement": "mutagenic call", "setting": "End Point: IN VIVO MICRONUCLEUS, Test System: PERIPHERAL BLOOD LYMPHOCYTES, Species: MOUSE, Strain/Sex: B6C3F1/MALE, Route: INHALATION", "result": "active; positive"}, {"measurement": "mutagenic call", "setting": "Test System: AMES SALMONELLA TYPHIMURIUM, Strain/Indicator: TA97, Metabolic Activation: HAMSTER, LIVER, S-9 (10%), AROCLOR 1254, Method: PREINCUBATION", "result": "inactive; negative"}, {"measurement": "mutagenic call", "setting": "Test System: AMES SALMONELLA TYPHIMURIUM, Strain/Indicator: TA97, Metabolic Activation: HAMSTER, LIVER, S-9 (30%), AROCLOR 1254, Method: PREINCUBATION", "result": "inactive; negative"}, {"measurement": "mutagenic call", "setting": "Test System: AMES SALMONELLA TYPHIMURIUM, Strain/Indicator: TA97, Metabolic Activation: NONE, Method: PREINCUBATION", "result": "inactive; negative"}, {"measurement": "mutagenic call", "setting": "Test System: AMES SALMONELLA TYPHIMURIUM, Strain/Indicator: TA97, Metabolic Activation: RAT, LIVER, S-9 (10%), AROCLOR 1254, Method: PREINCUBATION", "result": "inactive; negative"}, {"measurement": "mutagenic call", "setting": "Test System: AMES SALMONELLA TYPHIMURIUM, Strain/Indicator: TA97, Metabolic Activation: RAT, LIVER, S-9 (30%), AROCLOR 1254, Method: PREINCUBATION", "result": "inactive; negative"}, {"measurement": "mutagenic call", "setting": "Test System: AMES SALMONELLA TYPHIMURIUM, Strain/Indicator: TA98, Metabolic Activation: HAMSTER, LIVER, S-9 (10%), AROCLOR 1254, Method: PREINCUBATION", "result": "inactive; negative"}, {"measurement": "mutagenic call", "setting": "Test System: AMES SALMONELLA TYPHIMURIUM, Strain/Indicator: TA98, Metabolic Activation: HAMSTER, LIVER, S-9 (30%), AROCLOR 1254, Method: PREINCUBATION", "result": "inactive; negative"}, {"measurement": "mutagenic call", "setting": "Test System: AMES SALMONELLA TYPHIMURIUM, Strain/Indicator: TA98, Metabolic Activation: HAMSTER, LIVER, S-9, AROCLOR 1254, Method: STANDARD PLATE", "result": "inactive; negative"}, {"measurement": "mutagenic call", "setting": "Test System: AMES SALMONELLA TYPHIMURIUM, Strain/Indicator: TA98, Metabolic Activation: NONE, Method: PREINCUBATION", "result": "inactive; negative"}, {"measurement": "mutagenic call", "setting": "Test System: AMES SALMONELLA TYPHIMURIUM, Strain/Indicator: TA98, Metabolic Activation: NONE, Method: STANDARD PLATE", "result": "inactive; negative"}, {"measurement": "mutagenic call", "setting": "Test System: AMES SALMONELLA TYPHIMURIUM, Strain/Indicator: TA98, Metabolic Activation: RAT, LIVER, S-9 (10%), AROCLOR 1254, Method: PREINCUBATION", "result": "inactive; negative"}, {"measurement": "mutagenic call", "setting": "Test System: AMES SALMONELLA TYPHIMURIUM, Strain/Indicator: TA98, Metabolic Activation: RAT, LIVER, S-9 (30%), AROCLOR 1254, Method: PREINCUBATION", "result": "inactive; negative"}, {"measurement": "mutagenic call", "setting": "Test System: AMES SALMONELLA TYPHIMURIUM, Strain/Indicator: TA98, Metabolic Activation: RAT, LIVER, S-9, AROCLOR 1254, Method: STANDARD PLATE", "result": "inactive; negative"}, {"measurement": "mutagenic call", "setting": "Test System: AMES SALMONELLA TYPHIMURIUM, Strain/Indicator: TA100, Metabolic Activation: HAMSTER, LIVER, S-9 (10%), AROCLOR 1254, Method: PREINCUBATION", "result": "inactive; negative"}, {"measurement": "mutagenic call", "setting": "Test System: AMES SALMONELLA TYPHIMURIUM, Strain/Indicator: TA100, Metabolic Activation: HAMSTER, LIVER, S-9 (30%), AROCLOR 1254, Method: PREINCUBATION", "result": "inactive; negative"}, {"measurement": "mutagenic call", "setting": "Test System: AMES SALMONELLA TYPHIMURIUM, Strain/Indicator: TA100, Metabolic Activation: HAMSTER, LIVER, S-9, AROCLOR 1254, Method: STANDARD PLATE", "result": "inactive; negative"}, {"measurement": "mutagenic call", "setting": "Test System: AMES SALMONELLA TYPHIMURIUM, Strain/Indicator: TA100, Metabolic Activation: NONE, Method: PREINCUBATION", "result": "inactive; negative; precipitation occurred at 333 ug/plate"}, {"measurement": "mutagenic call", "setting": "Test System: AMES SALMONELLA TYPHIMURIUM, Strain/Indicator: TA100, Metabolic Activation: NONE, Method: STANDARD PLATE", "result": "inactive; negative"}, {"measurement": "mutagenic call", "setting": "Test System: AMES SALMONELLA TYPHIMURIUM, Strain/Indicator: TA100, Metabolic Activation: RAT, LIVER, S-9 (10%), AROCLOR 1254, Method: PREINCUBATION", "result": "inactive; negative"}, {"measurement": "mutagenic call", "setting": "Test System: AMES SALMONELLA TYPHIMURIUM, Strain/Indicator: TA100, Metabolic Activation: RAT, LIVER, S-9 (30%), AROCLOR 1254, Method: PREINCUBATION", "result": "inactive; negative"}, {"measurement": "mutagenic call", "setting": "Test System: AMES SALMONELLA TYPHIMURIUM, Strain/Indicator: TA100, Metabolic Activation: RAT, LIVER, S-9, AROCLOR 1254, Method: STANDARD PLATE", "result": "inactive; negative"}, {"measurement": "mutagenic call", "setting": "Test System: AMES SALMONELLA TYPHIMURIUM, Strain/Indicator: TA1535, Metabolic Activation: HAMSTER, LIVER, S-9 (10%), AROCLOR 1254, Method: PREINCUBATION", "result": "inactive; negative"}, {"measurement": "mutagenic call", "setting": "Test System: AMES SALMONELLA TYPHIMURIUM, Strain/Indicator: TA1535, Metabolic Activation: HAMSTER, LIVER, S-9 (30%), AROCLOR 1254, Method: PREINCUBATION", "result": "inactive; negative"}, {"measurement": "mutagenic call", "setting": "Test System: AMES SALMONELLA TYPHIMURIUM, Strain/Indicator: TA1535, Metabolic Activation: HAMSTER, LIVER, S-9, AROCLOR 1254, Method: STANDARD PLATE", "result": "inactive; negative"}, {"measurement": "mutagenic call", "setting": "Test System: AMES SALMONELLA TYPHIMURIUM, Strain/Indicator: TA1535, Metabolic Activation: NONE, Method: PREINCUBATION", "result": "inactive; negative"}, {"measurement": "mutagenic call", "setting": "Test System: AMES SALMONELLA TYPHIMURIUM, Strain/Indicator: TA1535, Metabolic Activation: NONE, Method: STANDARD PLATE", "result": "inactive; negative"}, {"measurement": "mutagenic call", "setting": "Test System: AMES SALMONELLA TYPHIMURIUM, Strain/Indicator: TA1535, Metabolic Activation: RAT, LIVER, S-9 (10%), AROCLOR 1254, Method: PREINCUBATION", "result": "inactive; negative"}, {"measurement": "mutagenic call", "setting": "Test System: AMES SALMONELLA TYPHIMURIUM, Strain/Indicator: TA1535, Metabolic Activation: RAT, LIVER, S-9 (30%), AROCLOR 1254, Method: PREINCUBATION", "result": "inactive; negative"}, {"measurement": "mutagenic call", "setting": "Test System: AMES SALMONELLA TYPHIMURIUM, Strain/Indicator: TA1535, Metabolic Activation: RAT, LIVER, S-9, AROCLOR 1254, Method: STANDARD PLATE", "result": "inactive; negative"}, {"measurement": "mutagenic call", "setting": "Test System: AMES SALMONELLA TYPHIMURIUM, Strain/Indicator: TA1537, Metabolic Activation: HAMSTER, LIVER, S-9, AROCLOR 1254, Method: STANDARD PLATE", "result": "inactive; negative"}, {"measurement": "mutagenic call", "setting": "Test System: AMES SALMONELLA TYPHIMURIUM, Strain/Indicator: TA1537, Metabolic Activation: NONE, Method: STANDARD PLATE", "result": "inactive; negative"}, {"measurement": "mutagenic call", "setting": "Test System: AMES SALMONELLA TYPHIMURIUM, Strain/Indicator: TA1537, Metabolic Activation: RAT, LIVER, S-9, AROCLOR 1254, Method: STANDARD PLATE", "result": "inactive; negative"}, {"measurement": "mutagenic call", "setting": "Test System: AMES SALMONELLA TYPHIMURIUM, Strain/Indicator: TA1538, Metabolic Activation: HAMSTER, LIVER, S-9, AROCLOR 1254, Method: STANDARD PLATE", "result": "inactive; negative"}, {"measurement": "mutagenic call", "setting": "Test System: AMES SALMONELLA TYPHIMURIUM, Strain/Indicator: TA1538, Metabolic Activation: NONE, Method: STANDARD PLATE", "result": "inactive; negative"}, {"measurement": "mutagenic call", "setting": "Test System: AMES SALMONELLA TYPHIMURIUM, Strain/Indicator: TA1538, Metabolic Activation: RAT, LIVER, S-9, AROCLOR 1254, Method: STANDARD PLATE", "result": "inactive; negative"}, {"measurement": "mutagenic call", "setting": "Test System: MOUSE LYMPHOMA, Strain/Indicator: L5178Y (TK+/TK-), Metabolic Activation: NONE, Method: SUSPENSION/PLATE", "result": "inactive; negative. reevaluation of results: negative"}, {"measurement": "mutagenic call", "setting": "Test System: MOUSE LYMPHOMA, Strain/Indicator: L5178Y (TK+/TK-), Metabolic Activation: RAT, LIVER, S-9, AROCLOR 1254, Method: SUSPENSION/PLATE", "result": "inactive; negative. reevaluation of results: negative"}]}]}
